Test results as given in PubChem BioAssay AID1996.
Converted amounts (≈) assume the structure as drawn.

Conditions: buffer; pH 7.4; 200.0 µM

| Structure (SMILES) | solubility kinetic |
| --- | --- |
| Cc1ccc(C(=O)OCC(=O)Nc2cccc(Cl)c2C)c(O)c1 | < 0.7 µg/mL |
| COc1cccc(NC(=O)CC2Oc3ccccc3NC2=O)c1 (stereo not given) | 6.7 µg/mL (≈ 21.5 µM) |
| Cc1ccc(NC(=O)C2Cc3ccccc3O/C2=N\O)cc1C (stereo not given) | 3.8 µg/mL (≈ 12.2 µM) |
| COc1ccc(-c2nnc(SCC(=O)NC3CC3)o2)cc1 | > 45.8 µg/mL |
| COc1ccc(N(CC(=O)Nc2cccnc2)S(=O)(=O)c2ccccc2)cc1Cl | 34.2 µg/mL (≈ 79.2 µM) |
| COC(=O)c1ccsc1NC(=O)c1ccco1 | 3.2 µg/mL (≈ 12.7 µM) |
| O=C1CSC(c2ccc([N+](=O)[O-])cc2)N1Cc1ccccc1 (stereo not given) | 32.5 µg/mL (≈ 103 µM) |
| COc1ccccc1S(=O)(=O)Nc1ccc2nc(C)sc2c1 | 10.4 µg/mL (≈ 31.1 µM) |
| Oc1ccccc1N1CCN(C(=S)NCc2ccccc2)CC1 | 22.4 µg/mL (≈ 68.4 µM) |
| CC1CC(C)(C)NC(=S)N1CCCC(=O)NCc1ccccc1 (stereo not given) | > 50 µg/mL |
| CN(C)c1nc(OCc2ccccc2)c2ncc(=O)[nH]c2n1 | 1.2 µg/mL (≈ 4.04 µM) |
| NS(=O)(=O)c1ccc(CNC(=O)c2ccccn2)cc1 | > 43.7 µg/mL |
| Cn1c(O)c(C=NCCN2CCNCC2)c(=O)[nH]c1=O | > 42.2 µg/mL |
| COc1ccc(CC(=O)Nc2ccc3c(c2)C(=O)N(CCC(=O)O)C3=O)cc1 | 53.2 µg/mL (≈ 139 µM) |
| CC(C)(C)c1cc(C(=O)N2CCc3ccccc3C2)ccn1 | > 44.2 µg/mL |
| Cc1c(/C=N/O)c2ccccn2c1C(=O)c1ccc(F)cc1 | 5.5 µg/mL (≈ 18.6 µM) |
| COc1ccccc1C(=O)Nc1nc2ccccc2[nH]1 | 4.2 µg/mL (≈ 15.7 µM) |
| O=C(CN1CCCCC1)c1c[nH]c2ccccc12 | > 36.3 µg/mL |
| Cn1c(=O)c(C=Nc2ccccc2)c(O)c2ccccc21 | 11.2 µg/mL (≈ 40.2 µM) |
| Cc1ccc(Cl)cc1NC(=S)NCCCSC1CCCCC1 | 2.5 µg/mL (≈ 7 µM) |
| O=C(/C=C/c1c(F)cccc1Cl)NCc1ccc2c(c1)OCO2 | < 0.7 µg/mL |
| CCCCC(=O)OCc1nc2ccccc2s1 | 11.2 µg/mL (≈ 44.9 µM) |
| O=C(c1ccc([N+](=O)[O-])o1)N1CCc2ccccc21 | 2.6 µg/mL (≈ 10.1 µM) |
| CCNC(=O)Nc1cc(OC)c(OC)cc1C(=O)O | > 40.2 µg/mL |

| Structure (SMILES) | solubility kinetic |
| --- | --- |
| CCOc1ccccc1Oc1nc(-c2ccccc2O)nc2ccccc12 | 0.6 µg/mL (≈ 1.67 µM) |
| CCc1c(C(=O)OCc2ccccc2)[nH]c(C)c1C | 1.3 µg/mL (≈ 5.05 µM) |
| CCN(CC)C(=O)Oc1cc(COC)nc(-c2ccccc2)n1 | 39.5 µg/mL (≈ 125 µM) |
| Cc1cc(Cl)ccc1NC(=S)NCCc1ccc(Cl)cc1 | < 0.4 µg/mL |
| COc1ccc(C2/C(=C(/O)c3ccc(F)cc3)C(=O)C(=O)N2CCCN2CCOCC2)cc1OC (stereo not given) | > 72.7 µg/mL |
| O=C(Cc1c(F)cccc1Cl)Nc1nc2ccccc2s1 | 0.8 µg/mL (≈ 2.49 µM) |
| Cc1ccc(C)c(CN2C(=O)NC3(CCCCCC3)C2=O)c1 | 3.7 µg/mL (≈ 12.3 µM) |
| Nc1ccc(Sc2nc3ccccc3[nH]2)cc1 | > 36.2 µg/mL |
| Cc1ccc(NC(=O)N(CCC(=O)O)Cc2ccccc2)cc1 | > 46.9 µg/mL |
| COc1ccccc1OCC(=O)Nc1nc(C)c(C)s1 | > 43.9 µg/mL |
| Cc1ccc(NC(=O)Nc2ccc3c(c2)OCO3)cc1F | < 0.3 µg/mL |
| CCCn1c(CCl)nc2cc(S(=O)(=O)N3CCOCC3)ccc21 | 0.6 µg/mL (≈ 1.68 µM) |
| CC(C)C(NC(=O)c1ccccc1F)C(=O)NCCCn1ccnc1 (stereo not given) | > 52 µg/mL |
| O=c1c2ccccc2ncn1-c1ccc(Cl)cc1 | 8.7 µg/mL (≈ 33.9 µM) |
| O=C(NCc1ccccc1Cl)c1ccc(Br)o1 | 41.9 µg/mL (≈ 133 µM) |
| COCC(=O)Nc1ccc(S(=O)(=O)NCC2CCCO2)cc1 (stereo not given) | > 49.3 µg/mL |
| CC(=O)COc1nc2c(c(-c3ccco3)c1C#N)CCc1ccccc1-2 | 1.7 µg/mL (≈ 4.94 µM) |
| O=C(COc1ccccc1[N+](=O)[O-])NCC1(N2CCOCC2)CCCCC1 | > 56.6 µg/mL |
| COc1ccc(OCc2csc(N)n2)cc1 | > 35.4 µg/mL |
| CCNC(=S)N1CCN(S(=O)(=O)/C=C/c2ccccc2)CC1 | 4.2 µg/mL (≈ 12.4 µM) |
| CC(C)c1ccc(C(=O)Nc2cccnc2)cc1 | > 36 µg/mL |
| O=C(O)CSc1ncnc2sc(-c3ccccc3)cc12 | > 45.4 µg/mL |
| CN1CC(=O)N=C1N.Cl | > 22.4 µg/mL |
| Cc1c(C(=O)NC2=NCCS2)cccc1[N+](=O)[O-] | 37.5 µg/mL (≈ 141 µM) |

| Structure (SMILES) | solubility kinetic |
| --- | --- |
| Cc1ccc(S(=O)(=O)N2CCC(C(=O)NCc3ccccc3CN3CCCC3)CC2)cc1 | 66.3 µg/mL (≈ 146 µM) |
| Cc1ccccc1C(=O)NCCCNC(=O)c1cnccn1 | 40.1 µg/mL (≈ 134 µM) |
| CCCCN1CC(O)=C(c2nc(-c3ccc(Br)cc3)cs2)C1=N | < 0.3 µg/mL |
| Cc1ccc(C(=O)O/N=C2/CC3CCC2(C)[C@@]3(C)CBr)cc1 (stereo not given in full) | < 0.8 µg/mL |
| CC(C)=C(NC(=O)c1ccccc1)C(=O)Nc1ccc(C(=O)O)cc1 | > 50.8 µg/mL |
| Cc1nn(CC(=O)NCc2ccco2)c(C)c1[N+](=O)[O-] | > 41.7 µg/mL |
| O=C(Nc1ccc2ccccc2n1)c1ccc(Cl)cc1 | < 0.3 µg/mL |
| CCOC(=O)c1cnc(SCC#N)nc1N | > 35.7 µg/mL |
| Cc1cc(C(=O)Cn2cnc3cc(F)ccc3c2=O)c(C)n1C1CC1 | 0.9 µg/mL (≈ 2.65 µM) |
| c1ccc(CCNCCOc2ccccc2)cc1 | 22.8 µg/mL (≈ 94.5 µM) |
| CN(C)S(=O)(=O)c1ccc(NC=C(C#N)C#N)cc1 | 26.3 µg/mL (≈ 95.2 µM) |
| COc1cccc(OP(=O)(Nc2ccccc2)Oc2cccc(OC)c2)c1 | < 0.8 µg/mL |
| O=C(Nc1ccc(F)cc1)Nc1cccc(Br)c1 | 0.7 µg/mL (≈ 2.26 µM) |
| N#Cc1nc(-c2cccc(Cl)c2)oc1N1CCC(C(N)=O)CC1 | 1.8 µg/mL (≈ 5.44 µM) |
| NC(=O)c1ccsc1NC(=O)CSc1ncnc2sccc12 | 6 µg/mL (≈ 17.1 µM) |
| COc1cc([N+](=O)[O-])ccc1NC(=O)/C=C\C(=O)O | > 39.9 µg/mL |
| Cc1ccc2c(c1)C1CN(C)CCC1N2S(=O)(=O)c1ccccc1F (stereo not given) | > 54.1 µg/mL |
| CN(CC(=O)Nc1cccc(F)c1)C(=O)c1ccc(-c2ccc(Cl)cc2)o1 | 5.6 µg/mL (≈ 14.5 µM) |
| CCOC(=O)NC(N(O)c1cccc(Cl)c1)C(Cl)(Cl)Cl (stereo not given) | 37.1 µg/mL (≈ 102 µM) |
| O=C(CCC(=O)Nc1ccccc1)N/N=C/c1ccncc1 | > 44.4 µg/mL |
| Cc1onc(-c2ccccc2Cl)c1C(O)c1ccc(F)cc1 (stereo not given) | 46.6 µg/mL (≈ 147 µM) |
| Cn1c(Nc2ccccc2)cc(=O)n(C)c1=O | > 34.7 µg/mL |
| CCC(C(=O)NCc1ccccc1OC)c1ccccc1 (stereo not given) | 32.6 µg/mL (≈ 115 µM) |
| O=C(CNC(=O)Cc1ccc(Cl)cc1)NCc1ccco1 | 26.4 µg/mL (≈ 86.1 µM) |

| Structure (SMILES) | solubility kinetic |
| --- | --- |
| Cc1cc(C)cc(NC(=O)NCc2c(-c3ccccc3)noc2C)c1 | 0.8 µg/mL (≈ 2.39 µM) |
| Cn1c(=O)c2c(ncn2CC(O)CNc2ccc(F)cc2)n(C)c1=O (stereo not given) | > 52.1 µg/mL |
| CCOC(=O)c1csc(NC(=O)c2cc(-c3ccccn3)nc3ccccc23)n1 | 1 µg/mL (≈ 2.47 µM) |
| Cc1cc(C)c2c(NC(=O)CCl)nn(C)c2n1 | > 37.9 µg/mL |
| O=S(N1CCc2ccccc21)C12CC3CC(CC(C3)C1)C2 (stereo not given) | 4.4 µg/mL (≈ 14.6 µM) |
| Cc1cccc(NC(=O)COc2cccc3c2CCN(C)C3=O)c1 | 41.9 µg/mL (≈ 129 µM) |
| COCCOc1ccc(C(F)(F)F)cc1NC(=O)COC(=O)c1ccc(N2CCCC2=O)cc1 | 3 µg/mL (≈ 6.24 µM) |
| CCOc1cc(C(=S)N2CCCC2)ccc1OCc1ccccc1 | 7.6 µg/mL (≈ 22.3 µM) |
| COC(=O)c1sccc1NC(=O)Nc1cccc(C)c1C | 8.1 µg/mL (≈ 26.6 µM) |
| CC(=O)c1c(C)[nH]c(C(=O)COC(=O)c2c(-c3ccccc3)noc2C)c1C | 2.1 µg/mL (≈ 5.52 µM) |
| CC1CCN(C(=O)COc2ncnc3ccccc23)CC1 | 35.7 µg/mL (≈ 125 µM) |
| O=c1oc2ccccc2c(CNc2ccccc2)c1[N+](=O)[O-] | 3.1 µg/mL (≈ 10.5 µM) |
| CCOc1ccc(NC(=O)N(C2CCCC2)C2CCN(C(C)=O)CC2)cc1 | > 56 µg/mL |
| O=C1CC(Cc2ccc(Cl)cc2)C(=O)N1c1cc(Cl)ccn1 (stereo not given) | 29.4 µg/mL (≈ 87.7 µM) |
| OCCC1CN(CC2CCCCC2)CCN1C1CCCC1 (stereo not given) | 40.8 µg/mL (≈ 139 µM) |
| Cc1ccc(NC(=O)CN2CCN(Cc3ccccc3)CC2)cc1F | 42.8 µg/mL (≈ 125 µM) |
| CCOc1ccccc1NC(=O)Nc1cccc(NC(C)=O)c1 | > 47 µg/mL |
| CCCCS(=O)(=O)N1CCCC(C(=O)N2CCOCC2)C1 (stereo not given) | 42.4 µg/mL (≈ 133 µM) |
| NS(=O)(=O)c1ccc(CNC(=O)CSc2nc3ccc(Cl)cc3[nH]2)cc1 | 10.3 µg/mL (≈ 25.1 µM) |
| CCn1cc(S(=O)(=O)Nc2cc(C(=O)OC)ccc2C)cn1 | > 48.5 µg/mL |
| CCOC(=O)CC(N)c1cccc([N+](=O)[O-])c1.Cl (stereo not given) | > 41.2 µg/mL |
| Cc1ccc(/C=C/C(=O)O)cc1S(=O)(=O)NCc1cccnc1 | 46.9 µg/mL (≈ 141 µM) |
| O=C(CCNC(=O)c1ccccc1Cl)Nc1ccccc1N1CCCC1 | 48.6 µg/mL (≈ 131 µM) |
| CN(C(=O)COC(=O)C1CCN(S(=O)(=O)c2ccc(Cl)cc2)CC1)C1CCS(=O)(=O)C1 (stereo not given) | 18 µg/mL (≈ 36.5 µM) |

| Structure (SMILES) | solubility kinetic |
| --- | --- |
| CCn1c(=O)c(C(=O)NCc2ccccc2)c(O)c2ccccc21 | < 0.3 µg/mL |
| Cc1cc(=O)[nH]c2ccc(S(=O)(=O)NC3CCCCC3)cc12 | 4.5 µg/mL (≈ 14 µM) |
| COc1cccc(OCc2nc(-c3ccc(Br)o3)no2)c1 | 7.1 µg/mL (≈ 20.2 µM) |
| Cc1ccc(S(=O)(=O)Nc2c(C)nn(C)c2C)c(C)c1 | > 44 µg/mL |
| Cl.O=C(NCCCN1CCOCC1)c1cc(S(=O)(=O)N2CCOCC2)ccc1Cl | > 70.3 µg/mL |
| CN(C)C=Nc1nonc1-c1ccc(Cl)cc1 | 1.4 µg/mL (≈ 5.58 µM) |
| COc1ccccc1/C=C/C(=O)Nc1cccnc1Cl | 2.7 µg/mL (≈ 9.35 µM) |
| CNc1ccc([N+](=O)[O-])cc1C(=O)O | 26.7 µg/mL (≈ 136 µM) |
| CCCCCC(=O)Nc1c2c(nc3ccccc13)CCC2 | 18.7 µg/mL (≈ 66.2 µM) |
| COc1ccc(NC(=S)N2CCc3cc(OC)c(OC)cc3C2)cc1 | 1.5 µg/mL (≈ 4.18 µM) |
| CC(C)(CN1CCOCC1)NS(=O)(=O)c1ccccc1 | 38 µg/mL (≈ 127 µM) |
| Cc1ccc(C(=O)NCC(=O)NCCCc2ccccc2)cc1 | > 46.6 µg/mL |
| CCOc1ccc(C(=O)N2CCN(c3ccccn3)CC2)cc1OCC | > 53.3 µg/mL |
| Cc1ccc(N2C(=O)CC(=O)NC2=O)cc1Cl | > 37.9 µg/mL |
| CCCSc1ncnc2sc(C)c(C)c12 | 0.5 µg/mL (≈ 2.1 µM) |
| CCc1cccc(NC(=O)c2ccc3c(=O)n4c(nc3c2)CCCCC4)c1 | 9.2 µg/mL (≈ 25.5 µM) |
| Clc1ccc2oc(SCc3cccnc3)nc2c1 | 3.5 µg/mL (≈ 12.6 µM) |
| COCCCNC(=O)c1ccccc1C(F)(F)F | > 39.2 µg/mL |
| Cn1cccc1C(=O)NCCc1ccccc1 | > 34.2 µg/mL |
| CCCCn1c(N)c(N(CC)C(=O)C2CCC2)c(=O)[nH]c1=O | > 46.3 µg/mL |
| CC(C)CCNC(=O)c1ccc(-n2cnc3cccnc32)cc1 | > 46.3 µg/mL |
| O=C(NNC(=O)C1CCN(c2ncccn2)CC1)c1ccncc1 | > 49 µg/mL |
| Cc1ccc(C)c(S(=O)(=O)NCCC(=O)N2CCCC(C(N)=O)C2)c1 (stereo not given) | > 55.1 µg/mL |
| CCOC(=O)c1sc(-c2cccs2)nc1C | 2.6 µg/mL (≈ 10.3 µM) |
